Experimental data as given in patent US20230079819A1, “COMPOUNDS AND USES THEREOF” (Foghorn Therapeutics Inc., priority 2019, published 2023).
Where two headings read alike, the source gives them in different places.

Key:
BRG-1 = target: T1, BRG-1 (Homo sapiens, UniProt P51532); test: ATPase catalytic activity of BRG-1, ADP-Glo in vitro biochemical assay; conditions: 30 nM BRG-1, 400 μM ATP
T1 construct: made in house; host or cells: High Five insect cells

BRM = target: T2, BRM (Homo sapiens, UniProt P51531); test: ATPase catalytic activity of BRM, ADP-Glo in vitro biochemical assay; conditions: 30 nM BRM, 400 μM ATP
T2 construct: made in house; host or cells: High Five insect cells

[1] = ATPase catalytic activity, read-out: BRG1 IP50 (μM)*
[2] = ATPase catalytic activity, read-out: BRM IP50 (μM)*
[3] = ATPase catalytic activity, read-out: BRG1 IP50
[4] = ATPase catalytic activity, read-out: BRM IP50

T1 sequence (P51532 whole entry): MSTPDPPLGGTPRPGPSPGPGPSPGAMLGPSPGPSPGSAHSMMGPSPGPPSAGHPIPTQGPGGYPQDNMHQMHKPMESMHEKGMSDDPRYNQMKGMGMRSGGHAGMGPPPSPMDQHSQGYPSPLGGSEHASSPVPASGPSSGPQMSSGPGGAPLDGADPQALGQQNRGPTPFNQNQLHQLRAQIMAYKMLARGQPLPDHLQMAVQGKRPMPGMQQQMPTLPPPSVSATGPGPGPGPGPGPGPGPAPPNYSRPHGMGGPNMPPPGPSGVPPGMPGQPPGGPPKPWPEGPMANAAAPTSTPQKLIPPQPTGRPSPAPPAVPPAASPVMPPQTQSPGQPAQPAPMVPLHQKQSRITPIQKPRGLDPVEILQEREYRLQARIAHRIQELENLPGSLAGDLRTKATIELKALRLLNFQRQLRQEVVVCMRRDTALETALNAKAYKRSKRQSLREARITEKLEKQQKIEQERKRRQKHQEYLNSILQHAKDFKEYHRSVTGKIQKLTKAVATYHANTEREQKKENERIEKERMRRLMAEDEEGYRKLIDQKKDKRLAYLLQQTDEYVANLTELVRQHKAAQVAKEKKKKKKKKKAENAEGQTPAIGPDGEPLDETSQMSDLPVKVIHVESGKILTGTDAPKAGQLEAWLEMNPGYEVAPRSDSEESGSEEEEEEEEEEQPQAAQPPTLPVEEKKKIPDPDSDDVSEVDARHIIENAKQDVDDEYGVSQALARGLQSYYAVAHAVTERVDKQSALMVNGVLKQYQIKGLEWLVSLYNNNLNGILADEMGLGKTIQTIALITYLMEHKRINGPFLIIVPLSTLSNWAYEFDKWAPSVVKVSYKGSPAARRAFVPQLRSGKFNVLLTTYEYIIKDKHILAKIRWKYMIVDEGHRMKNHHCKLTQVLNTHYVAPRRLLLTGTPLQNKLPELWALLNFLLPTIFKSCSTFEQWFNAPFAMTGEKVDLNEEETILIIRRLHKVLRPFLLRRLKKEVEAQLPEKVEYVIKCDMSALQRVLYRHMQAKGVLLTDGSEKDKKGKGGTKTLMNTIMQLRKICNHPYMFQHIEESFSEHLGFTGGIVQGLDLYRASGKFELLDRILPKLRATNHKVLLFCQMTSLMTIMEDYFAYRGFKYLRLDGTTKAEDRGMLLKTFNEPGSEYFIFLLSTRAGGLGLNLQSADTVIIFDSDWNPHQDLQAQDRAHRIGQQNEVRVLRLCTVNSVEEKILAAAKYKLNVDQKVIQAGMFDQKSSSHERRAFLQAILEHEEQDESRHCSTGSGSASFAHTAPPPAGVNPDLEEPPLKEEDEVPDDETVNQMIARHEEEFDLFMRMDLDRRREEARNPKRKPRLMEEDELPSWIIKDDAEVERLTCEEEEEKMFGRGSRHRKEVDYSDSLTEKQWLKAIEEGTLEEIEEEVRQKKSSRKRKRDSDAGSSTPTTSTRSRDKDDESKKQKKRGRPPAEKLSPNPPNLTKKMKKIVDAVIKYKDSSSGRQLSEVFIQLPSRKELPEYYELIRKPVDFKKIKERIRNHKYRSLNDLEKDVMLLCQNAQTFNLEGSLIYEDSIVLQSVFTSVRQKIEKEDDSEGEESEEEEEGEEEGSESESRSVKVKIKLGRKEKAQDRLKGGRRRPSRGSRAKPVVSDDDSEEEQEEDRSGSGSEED
T2 sequence (P51531 whole entry): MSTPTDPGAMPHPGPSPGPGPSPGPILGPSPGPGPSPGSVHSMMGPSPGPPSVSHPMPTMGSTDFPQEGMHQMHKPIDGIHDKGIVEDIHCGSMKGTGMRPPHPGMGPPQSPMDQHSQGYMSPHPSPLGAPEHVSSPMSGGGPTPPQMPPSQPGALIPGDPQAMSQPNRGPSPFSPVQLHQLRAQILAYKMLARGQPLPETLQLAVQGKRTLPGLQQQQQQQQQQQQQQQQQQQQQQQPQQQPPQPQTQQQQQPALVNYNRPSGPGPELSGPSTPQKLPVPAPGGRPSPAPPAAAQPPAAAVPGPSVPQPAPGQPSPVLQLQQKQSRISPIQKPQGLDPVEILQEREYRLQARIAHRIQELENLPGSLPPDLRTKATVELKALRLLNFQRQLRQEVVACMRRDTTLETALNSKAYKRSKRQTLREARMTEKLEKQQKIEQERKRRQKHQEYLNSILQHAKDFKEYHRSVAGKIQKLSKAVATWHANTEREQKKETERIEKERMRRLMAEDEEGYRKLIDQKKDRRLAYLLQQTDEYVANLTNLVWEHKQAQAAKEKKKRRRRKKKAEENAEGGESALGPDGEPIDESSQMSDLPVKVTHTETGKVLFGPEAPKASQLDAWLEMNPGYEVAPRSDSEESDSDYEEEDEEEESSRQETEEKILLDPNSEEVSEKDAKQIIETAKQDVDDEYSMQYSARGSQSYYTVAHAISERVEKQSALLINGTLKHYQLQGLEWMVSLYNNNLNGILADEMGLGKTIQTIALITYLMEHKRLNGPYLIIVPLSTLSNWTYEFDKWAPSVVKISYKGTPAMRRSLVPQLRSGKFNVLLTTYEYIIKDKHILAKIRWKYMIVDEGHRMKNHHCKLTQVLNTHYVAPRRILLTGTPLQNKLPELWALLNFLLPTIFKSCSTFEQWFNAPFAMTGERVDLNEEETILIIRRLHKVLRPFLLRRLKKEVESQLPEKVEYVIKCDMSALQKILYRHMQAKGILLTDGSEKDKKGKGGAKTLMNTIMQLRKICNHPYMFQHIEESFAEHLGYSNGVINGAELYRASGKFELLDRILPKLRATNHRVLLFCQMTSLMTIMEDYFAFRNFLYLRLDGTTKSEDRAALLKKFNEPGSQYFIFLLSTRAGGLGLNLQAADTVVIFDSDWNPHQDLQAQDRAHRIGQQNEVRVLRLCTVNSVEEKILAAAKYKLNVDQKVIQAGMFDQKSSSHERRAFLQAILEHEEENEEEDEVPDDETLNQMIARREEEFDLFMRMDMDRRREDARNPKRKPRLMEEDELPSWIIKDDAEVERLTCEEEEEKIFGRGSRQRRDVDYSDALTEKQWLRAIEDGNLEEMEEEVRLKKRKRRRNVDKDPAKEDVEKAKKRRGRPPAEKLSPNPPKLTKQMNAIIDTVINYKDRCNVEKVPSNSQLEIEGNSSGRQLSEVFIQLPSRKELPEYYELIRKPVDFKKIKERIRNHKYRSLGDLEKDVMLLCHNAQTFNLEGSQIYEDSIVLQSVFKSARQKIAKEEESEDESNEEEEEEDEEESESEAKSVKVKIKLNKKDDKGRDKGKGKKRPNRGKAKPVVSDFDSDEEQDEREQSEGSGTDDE

Row | SMILES | IC50 (BRG-1; [1]) [µM] | IC50 (BRM; [2]) [µM] | IC50 (BRG-1; [3]) [µM] | IC50 (BRM; [4]) [µM] | further results
1 | CC1(O)CCN(c2cccc(-c3csc(NC(=O)CNC(=O)c4ccn(S(C)(=O)=O)c4)n3)c2)CC1 [Compound 243] | > 0.1 | > 0.01 | – | – | –
2 | CS(=O)(=O)n1ccc(C(=O)NCC(=O)Nc2nc(-c3cccc(N4CC[C@@H](N)[C@H](F)C4)c3)cs2)c1 [Compound 290] | > 0.01 | < 0.01 | – | – | –
3 | COC[C@H](NC(=O)c1ccn(S(C)(=O)=O)c1)C(=O)Nc1nc(-c2cc(F)cc(C#N)c2)cs1 [Compound 714] | – | – | > 0.01 | > 0.01 | –
4 | CS(=O)(=O)n1ccc(C(=O)NCC(=O)Nc2nc(-c3cccc(N4CC5CC(C4)O5)c3)cs2)c1 [Compound 230] | > 0.1 | > 0.01 | – | – | –
5 | Cn1ccc(OCc2cccc(-c3csc(NC(=O)CNC(=O)c4ccn(C(C)(C)C)c4)n3)c2)n1 [Compound 119, 1-(tert-butyl)-N-(2-((4-(3-(((1-methyl-1H-pyrazol-3-yl)oxy)methyl)phenyl)thiazol-2-yl)amino)-2-oxoethyl)-1H-pyrrole-3-carboxamide] | > 0.1 | > 0.01 | – | – | –
6 | CN(C)C(=O)Cn1ccc(-c2cccc(-c3csc(NC(=O)CNC(=O)c4ccn(S(C)(=O)=O)c4)n3)c2)n1 [Compound 189] | < 0.01 | < 0.01 | – | – | –
7 | CS(=O)(=O)n1ccc(C(=O)NCC(=O)Nc2nc(-c3cccc(N4CCC(N)C(F)(F)C4)c3)cs2)c1 (stereo not drawn) [Compound 460] | – | – | > 0.01 | > 0.01 | –
8 | C[C@H](NC(=O)c1ccn(C2(C#N)CC2)n1)C(=O)Nc1nc(-c2ccc3ccn(C)c(=O)c3c2)cs1 [Compound 805] | – | – | – | – | IC50 (BRG-1; read-out: BRG1 IP50): > 0.1 µM; IC50 (BRM; read-out: BRM IP50): > 0.1 µM
9 | Cn1cnc(-c2cccc(-c3csc(NC(=O)CNC(=O)c4ccn(S(C)(=O)=O)c4)n3)c2)c1 [Compound 18, N-(2-((4-(3-(1-methyl-1H-imidazol-4-yl)phenyl)thiazol-2-yl)amino)-2-oxoethyl)-1-(methylsulfonyl)-1H-pyrrole-3-carboxamide] | > 0.01 | > 0.01 | – | – | –
10 | CC1COc2ccc(-c3csc(NC(=O)CNC(=O)c4ccn(S(C)(=O)=O)c4)n3)cc2N1C (stereo not drawn) [Compound 478] | – | – | > 0.01 | > 0.01 | –
11 | CS(=O)(=O)n1ccc(C(=O)NCC(=O)Nc2nc(-c3cccc(C4CCOCC4)c3)cs2)c1 [Compound 399] | – | – | > 0.01 | > 0.01 | –
12 | N#CC1(n2ccc(C(=O)NCC(=O)Nc3nc(-c4cccc(N5CCC5)c4)cs3)n2)CC1 [Compound 814] | – | – | – | – | IC50 (BRG-1; read-out: BRG1 IP50): > 0.1 µM; IC50 (BRM; read-out: BRM IP50): > 0.01 µM
13 | COC[C@H](NC(=O)c1ccn(S(C)(=O)=O)c1)C(=O)Nc1nc(-c2ccc3c(c2)C(=O)N(C)CC3)cs1 [Compound 351] | > 0.01 | > 0.01 | – | – | –
14 | CC(C)(C)n1ccc(C(=O)NCC(=O)Nc2nc(-c3cccc(N4CC[C@@H](N5CCOCC5)[C@@H](F)C4)n3)cs2)c1 [Compound 635] | – | – | > 0.1 | > 0.1 | –
15 | CN(C)[C@@H]1CCN(c2cccc(-c3csc(NC(=O)CNC(=O)c4ccn(S(C)(=O)=O)c4)n3)n2)CC1(F)F [Compound 762] | – | – | > 0.01 | > 0.01 | –
16 | CCC(=O)N1CCN(c2cccc(-c3csc(NC(=O)CNC(=O)c4ccn(C(C)(C)C)c4)n3)n2)CC1 [Compound 639] | – | – | > 0.01 | > 0.01 | –
17 | CC(C)(C)n1ccc(C(=O)NCC(=O)Nc2nc(-c3cccc(N4CC5(COC5)C4)c3)cs2)c1 [Compound 245] | > 0.01 | > 0.01 | – | – | –

Row | SMILES | IC50 (BRG-1; [1]) [µM] | IC50 (BRM; [2]) [µM] | IC50 (BRG-1; [3]) [µM] | IC50 (BRM; [4]) [µM] | further results
18 | CS(=O)(=O)n1ccc(C(=O)NCC(=O)Nc2nc(-c3cccc(C#N)c3)cs2)c1 [Compound 33, N-(2-((4-(3-cyanophenyl)thiazol-2-yl)amino)-2-oxoethyl)-1-(methylsulfonyl)-1H-pyrrole-3-carboxamide] | > 0.01 | > 0.01 | – | – | –
19 | N#CC1(n2ccc(C(=O)NCC(=O)Nc3nc(-c4cccc(OC(F)(F)F)n4)cs3)c2)CC1 [Compound 496] | – | – | > 0.1 | > 0.1 | –
20 | CN(C)Cc1cc(-c2cccc(-c3csc(NC(=O)CNC(=O)c4ccn(S(C)(=O)=O)c4)n3)c2)ccn1 [Compound 1, N-(2-((4-(3-(2-((dimethylamino)methyl)pyridin-4-yl)phenyl)thiazol-2-yl)amino)-2-oxoethyl)-1-(methylsulfonyl)-1H-pyrrole-3-carboxamide] | < 0.01 | < 0.01 | – | – | –
21 | CS(=O)(=O)n1ccc(C(=O)NCC(=O)Nc2nc(-c3cccc(C4=CCN(C5COC5)CC4)c3)cs2)c1 [Compound 389] | – | – | > 0.01 | > 0.01 | –
22 | CC(C)(C)n1ccc(C(=O)NCC(=O)Nc2nc(-c3cccc(N4CC(O)C4)c3)cs2)c1 [Compound 448] | – | – | > 0.01 | > 0.01 | –
23 | Cn1cc2c(n1)CCN(c1cccc(-c3csc(NC(=O)CNC(=O)c4ccn(S(C)(=O)=O)c4)n3)c1)C2 [Compound 446] | – | – | > 0.01 | > 0.01 | –
24 | CC(C)S(=O)(=O)n1ccc(C(=O)NCC(=O)Nc2nc(-c3cccc(-c4ccncc4)c3)cs2)c1 [Compound 43, 1-isopropylsulfonyl-N-[2-oxo-2-[[4-[3-(4-pyridyl)phenyl]thiazol-2-yl]amino]ethyl]pyrrole-3-carboxamide] | > 0.01 | > 0.01 | – | – | –
25 | COc1cccc(-c2csc(NC(=O)CNC(=O)c3ccn(S(C)(=O)=O)c3)n2)c1F [Compound 711] | – | – | > 0.01 | > 0.01 | –
26 | CC(C)(C)n1ccc(C(=O)NCC(=O)Nc2nc(-c3cccc(N4CCN(C5COC5)CC4)n3)cs2)c1 [Compound 440] | – | – | > 0.01 | > 0.01 | –
27 | CC(C)[C@H](NC(=O)c1ccn(S(C)(=O)=O)c1)C(=O)Nc1nc(-c2cccc(-c3ccncc3)c2)cs1 [Compound 73, (S)—N-(3-methyl-1-oxo-1-((4-(3-(pyridin-4-yl)phenyl)thiazol-2-yl)amino)butan-2-yl)-1-(methylsulfonyl)-1H-pyrrole-3-carboxamide] | > 0.01 | > 0.01 | – | – | –
28 | C[C@@H]1CN(c2nc(-c3csc(NC(=O)CNC(=O)c4ccn(C5(C)COC5)c4)n3)ccc2F)C[C@H](C)O1 [Compound 378] | > 0.01 | < 0.01 | – | – | –
29 | CC(C)(C)n1ccc(C(=O)NCC(=O)Nc2nc(-c3cccc(N4CCC5(CCOC5)C4)n3)cs2)c1 (stereo not drawn) [Compound 671] | – | – | > 0.1 | > 0.01 | –
30 | COC[C@H](NC(=O)c1ccn(S(C)(=O)=O)c1)C(=O)Nc1nc(-c2ccc3c(c2)OC(F)(F)O3)cs1 [Compound 728] | – | – | > 0.01 | > 0.01 | –
31 | CC(=O)N(C)c1cc(-c2cccc(-c3csc(NC(=O)CNC(=O)c4ccn(S(C)(=O)=O)c4)n3)c2)ccn1 [Compound 57, N-(2-((4-(3-(2-(N-methylacetamido)pyridin-4-yl)phenyl)thiazol-2-yl)amino)-2-oxoethyl)-1-(methylsulfonyl)-1H-pyrrole-3-carboxamide] | < 0.01 | < 0.01 | – | – | –
32 | CN1CCN(c2cc(-c3cccc(-c4csc(NC(=O)CNC(=O)c5ccn(S(C)(=O)=O)c5)n4)c3)ccn2)CC1 [Compound 19, N-(2-((4-(3-(2-(4-methylpiperazin-1-yl)pyridin-4-yl)phenyl)thiazol-2-yl)amino)-2-oxoethyl)-1-(methylsulfonyl)-1H-pyrrole-3-carboxamide] | > 0.01 | > 0.01 | – | – | –
33 | CC(=O)n1ccc(C(=O)NCC(=O)Nc2nc(-c3cccc(-c4ccncc4)c3)cs2)c1 [Compound 50, 1-acetyl-N-(2-oxo-2-((4-(3-(pyridin-4-yl)phenyl)thiazol-2-yl)amino)ethyl)-1H-pyrrole-3-carboxamide] | > 0.1 | > 0.1 | – | – | –
